The values below come from patent US11992500B2, “Use of methylation inhibitors for the treatment of autoimmune diseases” (Rush University Medical Center, priority 2018, dated 2024).

For one series, the system named is A20 cells. Briefly: Gene expression (qRT-PCR) in A20 cells cultured with epigenetic enzyme inhibitors. The format is cell-based, mouse. The settings on record: 72 hours; for AhR gene expression / Arnt gene expression: AzaC 2, 5, 10 μM, SAHA 0.1, 0.5, 1.0 μM, GSK126 5, 10, 15 μM, FIG. 6. On the technique in general: Quantitative PCR measures a nucleic acid by following its amplification.

The target of the next series is Ezh2 (Homo sapiens, UniProt Q15910). The settings on record: cited from earlier work.
Ezh2, sequence (Q15910 whole entry, species assumed): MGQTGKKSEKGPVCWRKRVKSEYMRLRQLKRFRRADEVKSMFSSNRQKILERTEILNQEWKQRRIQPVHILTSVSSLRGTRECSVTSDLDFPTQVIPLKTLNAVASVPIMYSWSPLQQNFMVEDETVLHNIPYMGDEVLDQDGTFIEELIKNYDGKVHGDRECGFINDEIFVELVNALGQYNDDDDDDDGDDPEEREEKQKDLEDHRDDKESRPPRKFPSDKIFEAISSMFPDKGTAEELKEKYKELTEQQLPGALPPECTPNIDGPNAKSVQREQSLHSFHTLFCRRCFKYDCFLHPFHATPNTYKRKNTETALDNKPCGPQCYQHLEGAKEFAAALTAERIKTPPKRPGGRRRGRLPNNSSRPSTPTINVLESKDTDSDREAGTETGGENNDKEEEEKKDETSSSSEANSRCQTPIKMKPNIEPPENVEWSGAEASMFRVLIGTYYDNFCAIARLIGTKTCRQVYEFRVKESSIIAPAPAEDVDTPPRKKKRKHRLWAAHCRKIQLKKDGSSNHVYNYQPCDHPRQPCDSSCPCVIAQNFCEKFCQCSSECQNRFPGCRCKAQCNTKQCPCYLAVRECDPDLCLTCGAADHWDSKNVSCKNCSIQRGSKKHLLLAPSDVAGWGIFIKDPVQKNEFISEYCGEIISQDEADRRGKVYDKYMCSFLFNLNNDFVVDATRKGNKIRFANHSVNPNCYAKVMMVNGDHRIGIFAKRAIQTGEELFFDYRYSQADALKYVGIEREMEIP
Ezh2, sequence (O75530 whole entry partner, species assumed): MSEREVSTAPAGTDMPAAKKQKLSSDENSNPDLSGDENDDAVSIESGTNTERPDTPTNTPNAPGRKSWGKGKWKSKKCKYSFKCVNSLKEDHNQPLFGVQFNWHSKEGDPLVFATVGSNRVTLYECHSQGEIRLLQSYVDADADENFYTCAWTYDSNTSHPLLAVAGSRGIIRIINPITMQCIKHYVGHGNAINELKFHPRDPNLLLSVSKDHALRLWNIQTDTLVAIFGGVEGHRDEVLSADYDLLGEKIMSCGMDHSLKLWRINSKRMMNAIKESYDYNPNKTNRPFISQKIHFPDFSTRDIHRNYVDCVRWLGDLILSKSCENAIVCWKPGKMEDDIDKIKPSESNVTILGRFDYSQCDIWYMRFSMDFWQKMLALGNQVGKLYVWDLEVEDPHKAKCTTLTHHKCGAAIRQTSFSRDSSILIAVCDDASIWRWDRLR
Ezh2, sequence (Q15022 whole entry partner, species assumed): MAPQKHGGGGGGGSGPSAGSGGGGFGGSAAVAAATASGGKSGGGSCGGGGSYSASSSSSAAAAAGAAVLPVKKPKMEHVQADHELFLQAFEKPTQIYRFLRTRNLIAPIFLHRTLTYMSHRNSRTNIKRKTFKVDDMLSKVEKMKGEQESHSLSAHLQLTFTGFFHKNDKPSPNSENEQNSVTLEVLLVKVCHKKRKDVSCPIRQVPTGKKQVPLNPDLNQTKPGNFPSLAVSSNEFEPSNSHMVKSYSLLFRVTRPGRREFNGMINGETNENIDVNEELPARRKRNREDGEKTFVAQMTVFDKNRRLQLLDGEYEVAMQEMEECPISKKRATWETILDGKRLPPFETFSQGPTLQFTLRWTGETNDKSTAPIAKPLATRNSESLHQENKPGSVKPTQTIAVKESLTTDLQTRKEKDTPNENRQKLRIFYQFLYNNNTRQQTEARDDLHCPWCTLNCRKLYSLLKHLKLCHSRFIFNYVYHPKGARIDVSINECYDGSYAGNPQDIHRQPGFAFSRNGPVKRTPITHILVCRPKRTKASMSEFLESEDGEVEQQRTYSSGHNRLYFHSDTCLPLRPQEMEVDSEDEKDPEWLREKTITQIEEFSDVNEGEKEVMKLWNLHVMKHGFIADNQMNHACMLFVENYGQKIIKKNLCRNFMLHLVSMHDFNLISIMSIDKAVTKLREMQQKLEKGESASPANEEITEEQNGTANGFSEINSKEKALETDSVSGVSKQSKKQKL
Ezh2, sequence (Q09028 whole entry partner, species assumed): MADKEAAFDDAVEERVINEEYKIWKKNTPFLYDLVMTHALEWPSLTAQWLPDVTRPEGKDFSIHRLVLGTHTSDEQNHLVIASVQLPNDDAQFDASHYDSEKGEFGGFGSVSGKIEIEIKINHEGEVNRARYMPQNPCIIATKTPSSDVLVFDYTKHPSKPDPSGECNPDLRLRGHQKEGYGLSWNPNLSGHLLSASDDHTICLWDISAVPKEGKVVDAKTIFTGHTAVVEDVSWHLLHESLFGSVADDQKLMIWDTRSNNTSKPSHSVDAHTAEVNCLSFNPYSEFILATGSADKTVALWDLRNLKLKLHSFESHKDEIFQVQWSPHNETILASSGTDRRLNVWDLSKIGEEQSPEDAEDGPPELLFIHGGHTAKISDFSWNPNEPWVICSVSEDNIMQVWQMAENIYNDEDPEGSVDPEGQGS

Regarding `O=C(CCCCCCC(=O)Nc1ccccc1)NO` [SAHA, suberanilohydroxamic acid], in the series with A20 cells, the Cytotoxicity result is “without high cytotoxicity”, the AhR gene expression result is listed as “could increase the gene expression” and the Arnt gene expression entry is reported as “could increase the gene expression”.

For the compound `CC[C@H](C)n1cc(C)c2c(C(=O)NCc3c(C)cc(C)[nH]c3=O)cc(-c3ccc(N4CCNCC4)nc3)cc21` [GSK126, N-[(1,2-dihydro-4,6-dimethyl-2-oxo-3-pyridinyl)methyl]-3-methyl-1-[(1S)-1-methylpropyl]-6-[6-(1-piperazinyl)-3-pyridinyl]-1H-indole-4-carboxamide], in the series with A20 cells, the AhR gene expression entry is on record as “promoted the expression” and the Arnt gene expression result is given as “statistically significant upregulation”.

On to `CCCc1cc(C)[nH]c(=O)c1CNC(=O)c1cc(-c2ccnc(N3CCN(C)CC3)c2)cc2c1cnn2C(C)C` [GSK343, N-[(1,2-dihydro-6-methyl-2-oxo-4-propyl-3-pyridinyl)methyl]-1-(1-methylethyl)-6-[2-(4-methyl-1-piperazinyl)-4-pyridinyl]-1H-indazole-4-carboxamide], for which the “Ki (affinity to Ezh2)” value at Ezh2 is “low nM range”.
